How the values were obtained:
[1] = tested on: HepG2; experiment: MTT cell viability assay, HepG2; format: cell-based; conditions: Homo sapiens, HepG2, 72 h, mean ± SD, n = 3
Experimental: (§1) All new tetrahydroquinoline derivatives were assessed for cytotoxicity on a broad panel of cancer and normal cell lines, using the MTT assay. The half-inhibitory growth inhibitory concentration (IC50) values of each compound were calculated after 72 h of treatment and presented in Table 1. […] In this assay, the IC50 value of 5-FU and ETP was recorded as a positive control.
(§2) Non-small cell lung cancer cells A549 (CCL-185), breast cancer cells MCF-7 ([…]), hepatocarcinoma cells HepG2 ([…]), normal kidney cells HEK293 (CRL-1573), and osteosarcoma cells U-2 OS (HTB-96) were obtained from the American Type Culture Collection. HCT-116 cell line was kindly provided by prof. Bert Vogelstein (Johns Hopkins University, Howard Hughes Medical Institute, USA). The obtained A549 and MCF-7 cells were cultured in RPMI-1640 medium, HepG2 cells in Minimum Essential Medium Eagle medium, HEK-293 cells in Dulbecco’s Modified Eagle’s medium, and U-2 OS and HCT-116 cells in McCoy’s […] medium. All culture media were supplemented with 10% fetal bovine serum, 2 mM L-glutamine, and antibiotics (penicillin 62.6 µg/ml and streptomycin 40 µg/ml; Sigma-Aldrich). Both cancer and normal cells were cultured at 37 °C under a humidified atmosphere with 5% or 10% CO2 and routinely screened for Mycoplasma contamination. All materials and reagents were obtained from Corning unless stated otherwise.
(§3) The cytotoxic effect of the synthesized compounds was assessed by the MTT (4,5-dimethylthiazol-2-yl-2,5-diphenyltetrazoliumbromide; Sigma-Aldrich) assay. Briefly, the cells were seeded into 96-well transparent flat-bottom plates and allowed to attach overnight. On the next day, the cells were treated with compounds in the range of 0–50 µM for 72 h. Dimethyl sulfoxide (DMSO; Merck) and 5-fluorouracil (5-FU; Sigma-Aldrich) were used as a reference. After exposure to the compounds, 20 μl of the MTT solution at a concentration of 4 mg/ml was added to each well, and the plates were incubated again for 2–3 h at 37 °C. Next, the media in the wells was replaced with 100 μl DMSO to solubilize the formazan crystals. The absorbance was measured at 540 nm using an ASYS UVM340 microplate reader (Biochrom Ltd.). The IC50 value of the compounds was calculated using GraphPad Prism 9 software, based on the curves plotted with survival as a function of dose, averaged from three independent experiments.

[2] = tested on: MCF-7; experiment: MTT cell viability assay, MCF-7; format: cell-based, human; conditions: Homo sapiens, MCF7, 72 h, mean ± SD, n = 3
Experimental: as §1, §2, §3

[3] = tested on: apoptosis-related proteins in A549 cells; experiment: Western blotting of apoptosis-related proteins; format: cell-based, human
Experimental: The expression of apoptosis-related proteins was determined by Western blotting. Briefly, A549 cells were treated with compound 4a at its IC50 concentration for 6, 24, and 48 h. The cells treated with 1% v/v DMSO served as the negative control. The total protein content was extracted from the cells using the NP-40 cell lysis buffer (10 mM Tris–HCl pH 7.4, 10 mM NaCl, 3 mM MgCl2, 0.5% Nonidet P-40, cOmplete Mini EDTA-free Protease Inhibitor Cocktail). Then, 30 µg of protein extract was separated by 10% sodium dodecyl sulfate–polyacrylamide gel electrophoresis, and the separated proteins were transferred to microporous polyvinylidene difluoride membranes (Bio-Rad). The membranes were blocked with 5% bovine serum albumin in tris-buffered saline-Tween 20 (TBST) buffer (0.2 M Tris-base, 0.137 M NaCl, 0.1% Tween 20) for 1 h at RT, and incubated overnight with primary antibodies at 4 °C. The blots were washed three times with TBST and incubated with appropriate peroxidase-conjugated secondary antibodies for 1 h at RT. Then, the blots were washed in TBST for 30 min and developed using an enhanced chemiluminescence detection reagent kit (Thermo Fisher Scientific) and a ChemiDoc XRS + Imaging System (Bio-Rad). All materials and reagents were obtained from Sigma-Aldrich unless stated otherwise.

[4] = A549, IC50 concentration, 6, 24, 48 h

O=c1[nH]c2c(c(-c3ccccc3)c1Cc1cccc3ccccc13)CCCC2 [Compound 4a, 3-(1-naphthylmethyl)-4-phenyl-5,6,7,8-tetrahydro-1H-quinolin-2-one]
IC50 [1]: > 50 µM | IC50 [2]: > 50 µM | PARP-1 band [3, 4]: proteolytic cleavage | caspase-3, caspase-8, and caspase-9 [3, 4]: cleaved into their corresponding catalytically active forms | expression of BAD protein [3, 4]: higher than that in the control group | expression of BAX protein [3, 4]: higher than that in the control group | expression of BCL-2 protein [3, 4]: significantly decreased | expression of BID [3, 4]: slightly activated | expression of AIF ([3]; A549, IC50 concentration, vs DMSO-treated control): remained unchanged

— article PMC9646836, “Tetrahydroquinolinone derivatives exert antiproliferative effect on lung cancer cells through apoptosis induction” (Scientific Reports, 2022)
